Laboratory results as given in ChEMBL document CHEMBL1134795 (J Med Chem, 2001).

Target: T1, Integrin alpha-IIb/beta-3 (Homo sapiens, UniProt P05106+P08514)
Assay: Inhibition of 125 I-fibrinogen binding to glycoprotein IIb/IIIa receptor
Type: protein-complex assay
Details: not given

T1 sequence (P05106 27-788 limits assumed): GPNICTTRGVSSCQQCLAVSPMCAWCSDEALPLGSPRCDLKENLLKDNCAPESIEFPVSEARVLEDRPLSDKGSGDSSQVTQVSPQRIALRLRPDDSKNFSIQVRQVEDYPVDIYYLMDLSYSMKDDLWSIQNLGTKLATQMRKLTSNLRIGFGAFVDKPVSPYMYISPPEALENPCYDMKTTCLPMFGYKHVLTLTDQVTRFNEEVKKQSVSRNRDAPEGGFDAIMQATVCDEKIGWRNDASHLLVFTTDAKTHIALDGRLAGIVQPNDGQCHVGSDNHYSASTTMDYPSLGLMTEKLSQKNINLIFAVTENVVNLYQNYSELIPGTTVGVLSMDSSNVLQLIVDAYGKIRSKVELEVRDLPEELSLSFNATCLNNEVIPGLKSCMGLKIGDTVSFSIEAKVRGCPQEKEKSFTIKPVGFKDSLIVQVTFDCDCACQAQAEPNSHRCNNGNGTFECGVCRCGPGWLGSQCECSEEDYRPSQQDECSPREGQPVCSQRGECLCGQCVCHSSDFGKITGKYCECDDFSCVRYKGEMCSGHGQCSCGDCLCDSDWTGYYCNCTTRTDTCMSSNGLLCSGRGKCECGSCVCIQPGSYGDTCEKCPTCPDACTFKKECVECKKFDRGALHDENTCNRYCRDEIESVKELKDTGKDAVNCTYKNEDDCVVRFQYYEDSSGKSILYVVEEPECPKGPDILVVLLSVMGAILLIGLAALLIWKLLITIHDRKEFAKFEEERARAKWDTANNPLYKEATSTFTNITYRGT
T1 sequence (P08514 32-887 limits assumed): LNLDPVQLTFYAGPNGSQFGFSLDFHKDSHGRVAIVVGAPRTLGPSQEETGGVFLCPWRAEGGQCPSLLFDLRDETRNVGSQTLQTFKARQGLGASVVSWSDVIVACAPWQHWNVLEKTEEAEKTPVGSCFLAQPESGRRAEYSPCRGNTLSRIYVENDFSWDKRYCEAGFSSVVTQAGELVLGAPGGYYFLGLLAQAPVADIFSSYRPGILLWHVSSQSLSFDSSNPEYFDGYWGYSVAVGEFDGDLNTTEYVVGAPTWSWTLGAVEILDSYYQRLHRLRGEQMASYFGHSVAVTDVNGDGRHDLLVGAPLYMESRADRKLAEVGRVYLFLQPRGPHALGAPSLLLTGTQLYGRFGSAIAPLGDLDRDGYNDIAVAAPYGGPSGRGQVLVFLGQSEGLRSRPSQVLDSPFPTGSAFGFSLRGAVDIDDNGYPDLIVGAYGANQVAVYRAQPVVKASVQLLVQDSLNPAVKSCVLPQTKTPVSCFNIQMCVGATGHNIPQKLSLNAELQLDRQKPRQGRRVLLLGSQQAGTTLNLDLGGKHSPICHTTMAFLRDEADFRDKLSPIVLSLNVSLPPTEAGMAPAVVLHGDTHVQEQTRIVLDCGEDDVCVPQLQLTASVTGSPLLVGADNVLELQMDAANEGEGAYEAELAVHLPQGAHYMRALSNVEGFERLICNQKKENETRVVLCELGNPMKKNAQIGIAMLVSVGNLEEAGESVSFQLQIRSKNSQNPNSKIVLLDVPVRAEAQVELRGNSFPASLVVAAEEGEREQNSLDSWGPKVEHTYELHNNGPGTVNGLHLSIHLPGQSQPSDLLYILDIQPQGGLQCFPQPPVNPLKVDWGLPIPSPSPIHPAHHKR
T1 sequence (P08514 891-1039 limits assumed): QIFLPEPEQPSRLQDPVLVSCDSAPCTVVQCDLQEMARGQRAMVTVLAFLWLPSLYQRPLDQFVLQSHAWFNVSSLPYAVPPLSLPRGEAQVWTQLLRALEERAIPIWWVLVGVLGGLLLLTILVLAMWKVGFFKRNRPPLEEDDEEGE

**Q.** With N=C(N)Nc1ccc(C2NC(=O)N(CC(=O)N[C@@H](CC(=O)O)C(=O)N[C@H](C(=O)O)c3ccccc3)C2=O)cc1 (stereo partly drawn) as the compound, how does the Ki read?
**A.** Its Ki is 0.03 µM.

Species: Homo sapiens
Assay: Inhibition of human platelet (isolated from PRP) aggregation
Type: functional
Details: not given

**Q.** For CC1(c2ccc(C(=N)N)cc2)NC(=O)N(CC(=O)N[C@@H](CC(=O)O)C(=O)N[C@H](C(=O)O)c2ccccc2)C1=O (stereo in doubt; 16), which IC50 is on record?
**A.** The IC50 was 0.04 µM.

**Q.** Which IC50 does the source give for CC1(c2ccc(C(=N)N)cc2)NC(=O)N(CC(=O)N[C@@H](CC(=O)O)C(=O)N[C@H](C(=O)O)c2ccccc2)C1=O (stereo in doubt; 17) here?
**A.** The IC50 was 0.8 µM.

Same assay, conditions: Homo sapiens

**Q.** Which IC50 does the source give for N=C(N)c1ccc(CC2NC(=O)N(CC(=O)N[C@@H](CC(=O)O)C(=O)N[C@H](C(=O)O)c3ccccc3)C2=O)cc1 (stereo partly drawn) here?
**A.** The IC50 was 0.2 µM.

**Q.** With CC(C)[C@H](NC(=O)[C@H](CC(=O)O)NC(=O)CN1C(=O)N[C@@H](CCCN=C(N)N)C1=O)C(=O)O as the compound, how does the IC50 read?
**A.** The IC50 was 1 µM.

**Q.** Which IC50 does the source give for CC(C)C[C@H](NC(=O)[C@H](CC(=O)O)NC(=O)CN1C(=O)N[C@@H](CCCN=C(N)N)C1=O)C(=O)O here?
**A.** The IC50 was 3 µM.

**Q.** For COC(=O)[C@@H](NC(=O)[C@H](CC(=O)O)NC(=O)CN1C(=O)NC(C)(c2ccc(C(=N)N)cc2)C1=O)c1ccccc1 (stereo partly drawn), which IC50 is on record?
**A.** The IC50 was 0.07 µM.

**Q.** With N=C(N)c1ccc(/C=C2/NC(=O)N(CC(=O)N[C@@H](CC(=O)O)C(=O)N[C@H](C(=O)O)c3ccccc3)C2=O)cc1 as the compound, how does the IC50 read?
**A.** The IC50 was 0.15 µM.

**Q.** Which IC50 does the source give for N=C(N)NCCC[C@@H]1NC(=O)N(CC(=O)N[C@@H](CC(=O)O)C(=O)N[C@H](C(=O)O)C2CCCCC2)C1=O here?
**A.** The IC50 was 1.5 µM.

**Q.** For N=C(N)Nc1ccc(CC2NC(=O)N(CC(=O)N[C@@H](CC(=O)O)C(=O)N[C@H](C(=O)O)c3ccccc3)C2=O)cc1 (stereo partly drawn), which IC50 is on record?
**A.** Its IC50 is 5.5 µM.

**Q.** With CC1(c2ccc(C(=N)N)cc2)NC(=O)N(CC(=O)N[C@@H](CC(=O)O)C(=O)NC2C3CC4CC(C3)CC2C4)C1=O (stereo partly drawn) as the compound, how does the IC50 read?
**A.** Its IC50 is 0.025 µM.

**Q.** For CCN1C(=O)N(CC(=O)NC(CC(=O)O)c2ccccc2)C(=O)C1(C)c1ccc(C(=N)N)cc1 (stereo not drawn), which IC50 is on record?
**A.** The IC50 was 0.5 µM.

**Q.** Which IC50 does the source give for CC1(c2ccc(C(=N)N)cc2)NC(=O)N(CC(=O)NCC(NC(=O)OCc2ccccc2)C(=O)O)C1=O (stereo not drawn) here?
**A.** The IC50 was 0.3 µM.

**Q.** Which IC50 does the source give for N=C(N)c1ccc(C2(C3CC3)NC(=O)N(CC(=O)N[C@@H](CC(=O)O)C(=O)N[C@H](C(=O)O)c3ccccc3)C2=O)cc1 (stereo partly drawn) here?
**A.** The IC50 was 0.02 µM.

**Q.** For CC1(c2ccc(NC(=N)N)cc2)NC(=O)N(CC(=O)N[C@@H](CC(=O)O)C(=O)N[C@H](C(=O)O)c2ccccc2)C1=O (stereo partly drawn), which IC50 is on record?
**A.** Its IC50 is 0.15 µM.

**Q.** For N=C(N)Nc1ccc(C2NC(=O)N(CC(=O)N[C@@H](CC(=O)O)C(=O)N[C@H](C(=O)O)c3ccccc3)C2=O)cc1 (stereo partly drawn), which IC50 is on record?
**A.** Its IC50 is 0.2 µM.

**Q.** Which IC50 does the source give for CC1(c2ccc(CN)cc2)NC(=O)N(CC(=O)N[C@@H](CC(=O)O)C(=O)N[C@H](C(=O)O)c2ccccc2)C1=O (stereo partly drawn) here?
**A.** Its IC50 is 0.15 µM.

**Q.** Which IC50 does the source give for N=C(N)Nc1cccc(C2NC(=O)N(CC(=O)N[C@@H](CC(=O)O)C(=O)N[C@H](C(=O)O)c3ccccc3)C2=O)c1 (stereo partly drawn) here?
**A.** Its IC50 is 6 µM.

**Q.** Which IC50 does the source give for N=C(N)NCCC[C@@H]1NC(=O)N(CC(=O)N[C@@H](CC(=O)O)C(=O)N[C@@H](Cc2ccccc2)C(=O)O)C1=O here?
**A.** The IC50 was 10 µM.

**Q.** Which IC50 does the source give for CCC1(c2ccc(C(=N)N)cc2)NC(=O)N(CC(=O)N[C@@H](CC(=O)O)C(=O)N[C@H](C(=O)O)c2ccccc2)C1=O (stereo partly drawn) here?
**A.** Its IC50 is 0.025 µM.

**Q.** Which IC50 does the source give for N=C(N)c1ccc(C2(Cc3ccccc3)NC(=O)N(CC(=O)N[C@@H](CC(=O)O)C(=O)N[C@H](C(=O)O)c3ccccc3)C2=O)cc1 (stereo partly drawn) here?
**A.** Its IC50 is 0.05 µM.

System: not listed separately
Assay: terminal elimination half-life for the compound was evaluated after oral administration of a dose of 1 mg/kg in a group of eight conscious dogs
Type: ADME, organism-based, Canis lupus familiaris
Design: dose 1 mg/kg, route oral
Details: dog, in vivo

**Q.** For CCOC(=O)C[C@H](NC(=O)CN1C(=O)N[C@@](C)(c2ccc(C(=N)N)cc2)C1=O)c1ccccc1.O=C(O)/C=C\C(=O)O [CARAFIBAN MALEATE], which half-life is on record?
**A.** Its half-life is 9.9 h.

Target: T1, Integrin alpha-IIb/beta-3
Assay: Inhibition of 125 I-fibrinogen binding to ADP-activated gel filtered human platelets
Details: not given

**Q.** Which Ki does the source give for N=C(N)NCCC[C@@H]1NC(=O)N(CC(=O)N[C@@H](CC(=O)O)C(=O)N[C@H](C(=O)O)c2ccccc2)C1=O here?
**A.** Its Ki is 0.12 µM.
